# Assay results: patent US9932325B2 (Denali Therapeutics Inc., priority 2015, dated 2018)
# Where “and” joins values, the source holds several entries; their conditions need not be identical. Equal entries are not always repeated.
# Biological target: LRRK2 G2019S enzyme (Homo sapiens (Human), UniProt Q5S007, G2019S)
# Experiment: LRRK2 G2019S TR-FRET biochemical assay (LRRKtide substrate)
# Settings: 134 μM ATP
# Experimental: Detection Reaction Conditions • 1× TR-FRET dilution buffer • 10 mM EDTA • 2 nM antibody • 23° C. reaction temperature • 10 μL total reaction volume
# Compounds were prepared by initially diluting to 1 mM with DMSO. 35 μL of reference compound solution, 35 μL of test compound solution, and 35 μL HPE were successively added to the source plate (384-well assay plate, Labcyte). The plates were centrifuged at 2500 rpm for 1 minute and sealed in foil. […] The assay plate was centrifuged at 2500 rpm for 1 minute, and sealed with foil.
# To perform the enzyme reaction, 5 μL of LRRKtide substrate and kinase mixture in assay buffer was added to all wells of the assay plate. The plate was centrifuged to concentrate the mixture at the bottom of the wells. The assay plate was incubated at 23° C. for 20 minutes. Following incubation, 5 μL of 2× ATP in assay buffer was added to each well, and plates were centrifuged to concentrate the mixture at the bottom of the wells. The plate was incubated at 23° C. for 60 minutes.
# To perform the detection of the reaction, EDTA completely mixed in TR-FRET dilution buffer was added to antibody reagent. 10 μL of detection reagent was added to all wells of each well of the assay plate and the plate was centrifuged to concentrate the mixture at the bottom of the wells. The plate was then incubated at 23° C. for 60 minutes.
# LRRK2 G2019S enzyme, sequence (Q5S007 whole entry G2019S): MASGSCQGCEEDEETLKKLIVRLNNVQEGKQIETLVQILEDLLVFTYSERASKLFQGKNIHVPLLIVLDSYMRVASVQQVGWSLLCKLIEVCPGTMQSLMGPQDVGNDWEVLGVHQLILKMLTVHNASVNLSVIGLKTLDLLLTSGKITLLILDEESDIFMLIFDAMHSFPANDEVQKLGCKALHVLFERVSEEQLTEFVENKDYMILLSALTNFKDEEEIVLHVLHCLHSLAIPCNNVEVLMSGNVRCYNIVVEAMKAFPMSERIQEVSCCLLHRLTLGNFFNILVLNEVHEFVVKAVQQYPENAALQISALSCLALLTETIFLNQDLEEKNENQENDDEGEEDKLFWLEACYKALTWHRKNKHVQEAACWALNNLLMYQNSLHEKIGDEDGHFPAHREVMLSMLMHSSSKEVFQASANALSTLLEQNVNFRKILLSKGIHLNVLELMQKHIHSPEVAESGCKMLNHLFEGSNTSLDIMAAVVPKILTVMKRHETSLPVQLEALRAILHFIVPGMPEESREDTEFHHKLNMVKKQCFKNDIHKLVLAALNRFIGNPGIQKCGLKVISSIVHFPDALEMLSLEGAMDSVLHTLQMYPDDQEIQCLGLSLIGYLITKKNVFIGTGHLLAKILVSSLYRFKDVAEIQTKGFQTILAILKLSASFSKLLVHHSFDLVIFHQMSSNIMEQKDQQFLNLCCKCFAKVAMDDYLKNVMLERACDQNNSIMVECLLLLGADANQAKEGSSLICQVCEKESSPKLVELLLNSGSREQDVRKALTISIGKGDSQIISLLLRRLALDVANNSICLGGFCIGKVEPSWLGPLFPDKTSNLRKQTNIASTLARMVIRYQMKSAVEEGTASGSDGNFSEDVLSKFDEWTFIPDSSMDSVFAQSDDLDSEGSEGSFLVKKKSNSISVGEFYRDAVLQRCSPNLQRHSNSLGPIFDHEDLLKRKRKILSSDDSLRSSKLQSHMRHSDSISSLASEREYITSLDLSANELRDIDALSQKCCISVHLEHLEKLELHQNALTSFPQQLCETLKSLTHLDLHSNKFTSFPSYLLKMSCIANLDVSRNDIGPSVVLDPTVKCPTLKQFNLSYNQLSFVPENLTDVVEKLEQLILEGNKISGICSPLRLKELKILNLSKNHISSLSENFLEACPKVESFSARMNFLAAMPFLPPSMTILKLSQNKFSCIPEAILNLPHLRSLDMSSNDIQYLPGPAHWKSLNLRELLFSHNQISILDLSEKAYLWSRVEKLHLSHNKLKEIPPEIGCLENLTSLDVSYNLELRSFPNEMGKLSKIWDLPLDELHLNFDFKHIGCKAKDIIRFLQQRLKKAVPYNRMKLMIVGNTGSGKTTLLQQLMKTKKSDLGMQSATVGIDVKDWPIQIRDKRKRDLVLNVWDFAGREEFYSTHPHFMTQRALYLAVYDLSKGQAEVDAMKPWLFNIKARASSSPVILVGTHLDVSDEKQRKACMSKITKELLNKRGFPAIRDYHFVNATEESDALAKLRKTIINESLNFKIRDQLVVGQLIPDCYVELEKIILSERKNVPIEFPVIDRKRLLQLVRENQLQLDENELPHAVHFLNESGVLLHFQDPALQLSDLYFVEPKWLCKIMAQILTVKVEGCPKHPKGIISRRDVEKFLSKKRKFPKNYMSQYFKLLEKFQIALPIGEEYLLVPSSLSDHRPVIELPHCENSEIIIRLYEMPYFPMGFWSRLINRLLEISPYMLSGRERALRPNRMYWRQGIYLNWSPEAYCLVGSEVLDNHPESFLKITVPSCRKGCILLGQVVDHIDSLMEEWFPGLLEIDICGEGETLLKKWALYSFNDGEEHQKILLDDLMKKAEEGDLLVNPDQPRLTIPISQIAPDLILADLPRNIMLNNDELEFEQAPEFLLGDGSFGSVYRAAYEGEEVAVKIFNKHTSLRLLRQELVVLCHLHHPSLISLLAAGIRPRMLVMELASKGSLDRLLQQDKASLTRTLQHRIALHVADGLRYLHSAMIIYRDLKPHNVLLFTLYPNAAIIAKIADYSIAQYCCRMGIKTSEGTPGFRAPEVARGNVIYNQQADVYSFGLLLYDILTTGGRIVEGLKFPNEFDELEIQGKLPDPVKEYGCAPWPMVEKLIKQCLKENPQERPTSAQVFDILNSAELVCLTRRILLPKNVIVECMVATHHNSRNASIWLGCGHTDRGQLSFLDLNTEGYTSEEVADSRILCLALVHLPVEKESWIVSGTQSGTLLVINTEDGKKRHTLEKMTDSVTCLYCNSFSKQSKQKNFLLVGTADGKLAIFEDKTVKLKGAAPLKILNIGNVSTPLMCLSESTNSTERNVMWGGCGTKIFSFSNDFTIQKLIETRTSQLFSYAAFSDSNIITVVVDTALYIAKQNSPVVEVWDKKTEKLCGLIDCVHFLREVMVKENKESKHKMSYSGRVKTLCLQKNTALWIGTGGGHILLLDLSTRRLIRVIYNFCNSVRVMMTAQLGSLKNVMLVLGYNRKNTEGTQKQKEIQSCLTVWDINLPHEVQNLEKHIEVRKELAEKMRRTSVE
row,IC50,SMILES
1,< 30 nM,Cc1c(Nc2ncc(C(F)(F)F)c(NC3CC3)n2)cnn1[C@H]1C[C@H](C#N)C1 [Compound 21]
2,< 30 nM,[2H]C([2H])([2H])N1CCC(n2cc(Nc3ncc(C(F)(F)F)c(NCC)n3)c(C)n2)(C([2H])([2H])[2H])C1=O (stereo not shown) [Compound 22]
3,< 30 nM,[2H]C([2H])([2H])N1CCC(n2cc(Nc3ncc(C(F)(F)F)c(NCC)n3)c(C)n2)C1=O (stereo not shown) [Compound 25]
4,< 30 nM and 3.41 nM,CCNc1nc(Nc2cnn([C@H]3C[C@@H](C#N)C3)c2C)ncc1C(F)(F)F [Compound 27]
5,< 30 nM,CCNc1nc(Nc2cnn(C3CCC3)c2C#N)ncc1C(F)(F)F [Compound 32]
6,< 30 nM,[2H]C([2H])([2H])n1cnc(C(C)(C)n2cc(Nc3ncc(Br)c(OC)n3)c(C)n2)n1 [Compound 33]
7,< 30 nM,CCNc1nc(Nc2cn([C@H]3C[C@H](C#N)C3)nc2C)ncc1C(F)(F)F [Compound 35A]
8,< 30 nM,CCNc1nc(Nc2cn([C@H]3C[C@@H](C#N)C3)nc2C)ncc1C(F)(F)F [Compound 35B]
9,< 30 nM,COc1nc(Nc2cnn(C3CCC3)c2C#N)ncc1Br [Compound 37]
10,< 30 nM,Cc1nn(C(C)(C)C#N)cc1Nc1ncc(C(F)(F)F)c(NC2CC2)n1 [Compound 38]
11,< 30 nM,Cc1nn(C(C)(C)C#N)cc1Nc1ncc(C(F)(F)F)c(N[C@H]2C[C@H]2F)n1 [Compound 39A]
12,< 30 nM,CNc1nc(Nc2cn(C(C)(C)C#N)nc2C)ncc1Br [Compound 42]
13,< 30 nM,CCNc1nc(Nc2cn(C(C)(C)C#N)nc2C)ncc1Br [Compound 43]
14,< 30 nM,[2H]C([2H])([2H])c1nn(C(C#N)(C([2H])([2H])[2H])C([2H])([2H])[2H])cc1Nc1ncc(C(F)(F)F)c(NCC)n1 [Compound 44]
15,< 30 nM,[2H]C([2H])([2H])c1nn(C(C#N)(C([2H])([2H])[2H])C([2H])([2H])[2H])cc1Nc1ncc(C(F)(F)F)c(NCC(F)F)n1 [Compound 46]
16,< 30 nM,[2H]C([2H])([2H])c1nn(C(C#N)(C([2H])([2H])[2H])C([2H])([2H])[2H])cc1Nc1ncc(C(F)(F)F)c(NC2CC2)n1 [Compound 48]
17,< 30 nM,CCNc1nc(Nc2cnn3c2CC(F)C3)ncc1C(F)(F)F (stereo not shown) [Compound 50]
18,< 30 nM,CCNc1nc(Nc2cc(C(C)(C)n3nccn3)nn2C)ncc1C(F)(F)F [Compound 57]
19,< 30 nM,CCNc1nc(Nc2cnn(C3CCC3)c2C#N)ncc1Br [Compound 58]
20,< 30 nM,Cc1nn(C(C)(C)C#N)cc1Nc1ncc(C(F)(F)F)c(NCC(F)F)n1 [Compound 59]
21,< 30 nM,Cc1nn(C(C)(C)C#N)cc1Nc1ncc(Cl)c(OC2CC2)n1 [Compound 60]
22,< 30 nM,CCNc1nc(Nc2cnn3c2CC(n2ccnn2)C3)ncc1C(F)(F)F (stereo not shown) [Compound 61]

row,IC50,SMILES
1,< 30 nM,COc1nc(Nc2cnn(C3(C)CCNC3=O)c2C)ncc1Br (stereo not shown) [Compound 65]
2,< 30 nM,Cc1nn(C(C)(C)C#N)cc1Nc1ncc(Br)c(NC2CC2)n1 [Compound 66]
3,< 30 nM,Cn1nc(C(C)(C)n2nccn2)cc1Nc1ncc(C(F)(F)F)c(NC2CC2)n1 [Compound 69]
4,< 30 nM,[2H]C([2H])([2H])n1nc(C(C)(C)n2cccn2)cc1Nc1ncc(C(F)(F)F)c(NCC)n1 [Compound 70]
5,< 30 nM,[2H]C([2H])([2H])n1nc(C(C)(C)n2cccn2)cc1Nc1ncc(C(F)(F)F)c(NC2CC2)n1 [Compound 71]
6,< 30 nM,Cc1nn(C(C)(C)C#N)cc1Nc1ncc(Cl)c(NC2CC2)n1 [Compound 72]
7,< 30 nM,Cc1nn(C(C)(C)C#N)cc1Nc1ncc(Br)c(NCC(F)F)n1 [Compound 73]
8,< 30 nM,[2H]C([2H])([2H])c1nn(C(C#N)(C([2H])([2H])[2H])C([2H])([2H])[2H])cc1Nc1ncc(C(F)(F)F)c(NC([2H])([2H])C([2H])([2H])[2H])n1 [Compound 74]
9,< 30 nM,[2H]C([2H])([2H])n1nc(C(C)(C)n2nccn2)cc1Nc1ncc(Br)c(NCC)n1 [Compound 75]
10,< 30 nM,Cc1nn(C(C)(C)C#N)cc1Nc1ncc(C(F)(F)F)c(NC(CF)CF)n1 [Compound 76]
11,< 30 nM,CNc1nc(Nc2cc(C(C)(C)n3nccn3)nn2C2CC2)ncc1C(F)(F)F [Compound 77]
12,< 30 nM,[2H]C([2H])([2H])n1nc(C(C)(C)n2nccn2)cc1Nc1ncc(Br)c(NC2CC2)n1 [Compound 79]
13,< 30 nM,[2H]C([2H])([2H])n1nc(C(C)(C)n2nccn2)cc1Nc1ncc(Br)c(OC2CC2)n1 [Compound 81]
14,< 30 nM,[2H]C([2H])([2H])n1nc(C(C)(C)c2ncco2)cc1Nc1ncc(C(F)(F)F)c(NCC)n1 [Compound 82]
15,< 30 nM,[2H]C([2H])([2H])n1nc(Nc2ncc(C(F)(F)F)c(NCC)n2)cc1C(C)(C)c1ncco1 [Compound 83]
16,< 30 nM,Cc1nn(C(C)(C)C#N)cc1Nc1ncc(C(F)(F)F)c(NC2(C)CC2)n1 [Compound 84]
17,< 30 nM,CCNc1nc(Nc2cn(C(C)(C)c3nncs3)nc2C)ncc1C(F)(F)F [Compound 85]
18,< 30 nM,CCNc1nc(Nc2cc(C(C)(C)n3nccn3)nn2C(C)C)ncc1C(F)(F)F [Compound 86]
19,< 30 nM,CCNc1nc(Nc2cn(C(C)(C)C#N)nc2C)ncc1C(F)(F)F [Compound 87]
20,< 30 nM,[2H]C([2H])([2H])C([2H])([2H])n1nc(C(C)(C)n2nccn2)cc1Nc1ncc(C(F)(F)F)c(NCC)n1 [Compound 88]
21,< 30 nM,[2H]C([2H])([2H])C([2H])([2H])Nc1nc(Nc2cn(C(C)(C)C#N)nc2C)ncc1C(F)(F)F [Compound 89]
22,< 30 nM,CCNc1nc(Nc2cn(Cc3ccon3)nc2C2CC2)ncc1C(F)(F)F [Compound 94]

row,IC50,SMILES
1,< 30 nM,COc1nc(Nc2cn(Cc3cc[nH]n3)nc2C2CC2)ncc1Br [Compound 95]
2,< 30 nM,CCNc1nc(Nc2cn(C3CS(=O)(=O)C3)nc2C2CC2)ncc1Br [Compound 96]
3,< 30 nM,CCNc1nc(Nc2cnn([C@H]3C[C@H](n4nccn4)C3)c2C2CC2)ncc1C(F)(F)F [Compound 97]
4,< 30 nM,CCNc1nc(Nc2cnn(-c3cnccn3)c2Cl)ncc1C(F)(F)F [Compound 98]
5,< 30 nM,CCNc1nc(Nc2cnn([C@H]3C[C@@H](n4nccn4)C3)c2C2CC2)ncc1C(F)(F)F [Compound 101]
6,< 30 nM,"CCNc1nc(Nc2cnn(-c3cnccn3)c2C2CC2)ncc1C(F)(F)F [Compound 105, N2-(5-cyclopropyl-1-pyrazin-2-yl-pyrazol-4-yl)-N4-ethyl-5-(trifluoromethyl)pyrimidine-2,4-diamine]"
7,< 30 nM,CCNc1nc(Nc2cnn([C@H]3C[C@@H](N4CCN(CC(F)F)CC4)C3)c2C)ncc1C(F)(F)F [Compound 106]
8,< 30 nM,CCNc1nc(Nc2cn(C3C[C@@H]3C#N)nc2C2CC2)ncc1C(F)(F)F (stereo partly shown) [Compound 107]
9,< 30 nM,CCNc1nc(Nc2cn(C3(C)CCOC3=O)nc2C2CC2)ncc1C(F)(F)F (stereo not shown) [Compound 108]
10,< 30 nM,CNc1nc(Nc2c[nH]nc2C)ncc1C(F)(F)F [Compound 109]
11,< 30 nM,"CCNc1nc(Nc2cn(C3CS(=O)(=O)C3)nc2C2CC2)ncc1C(F)(F)F [Compound 110, N2-[3-cyclopropyl-1-(1,1-dioxothietan-3-yl)pyrazol-4-yl]-N4-ethyl-5-(trifluoromethyl)pyrimidine-2,4-diamine]"
12,< 30 nM,CCNc1nc(Nc2cn(S(C)(=O)=O)nc2C2CC2)ncc1Br [Compound 111]
13,< 30 nM,CCNc1nc(Nc2cn(S(C)(=O)=O)nc2C2CC2)ncc1C(F)(F)F [Compound 112]
14,< 30 nM,CCNc1nc(Nc2cnn(C3CC(N4CCN(CC(F)F)CC4)C3)c2C)ncc1C(F)(F)F (stereo not shown) [Compound 121]
15,< 30 nM,CCNc1nc(Nc2cc(C(C)(C)n3nccn3)nn2C2CC2)ncc1Br [Compound 126]
16,< 30 nM,CCNc1nc(Nc2cc(C(C)(C)n3nccn3)nn2C2CCC2)ncc1C(F)(F)F [Compound 127]
17,< 30 nM,CNc1nc(Nc2cc(C(C)(C)c3ncccn3)nn2C2CC2)ncc1C(F)(F)F [Compound 128]
18,< 30 nM,CCNc1nc(Nc2cc(C(C)(C)n3nccn3)nn2CC)ncc1C(F)(F)F [Compound 129]
19,< 30 nM,CCNc1nc(Nc2cc(C(=O)N(C)C)nn2C2CC2)ncc1C(F)(F)F [Compound 130]
20,< 30 nM,CCNc1nc(Nc2cc(S(C)(=O)=O)nn2C2CC2)ncc1C(F)(F)F [Compound 132]

row,SMILES,IC50
1,[2H]C([2H])([2H])Nc1nc(Nc2cn(C(C#N)(C([2H])([2H])[2H])C([2H])([2H])[2H])nc2C([2H])([2H])[2H])ncc1C(F)(F)F [Compound 40],< 30 nM
2,[2H]C([2H])([2H])c1nn(C(C#N)(C([2H])([2H])[2H])C([2H])([2H])[2H])cc1Nc1ncc(C(F)(F)F)c(NC)n1 [Compound 45],< 30 nM
3,[2H]C([2H])([2H])c1nn(C(C)(C)C#N)cc1Nc1ncc(C(F)(F)F)c(NC)n1 [Compound 62],< 30 nM
4,[2H]C([2H])([2H])Nc1nc(Nc2cn(C(C)(C)C#N)nc2C([2H])([2H])[2H])ncc1C(F)(F)F [Compound 63],< 30 nM
5,[2H]C([2H])([2H])Nc1nc(Nc2cn(C(C)(C)C#N)nc2C)ncc1C(F)(F)F [Compound 67],< 30 nM
6,[2H]C([2H])([2H])C(C#N)(n1cc(Nc2ncc(C(F)(F)F)c(NC)n2)c(C)n1)C([2H])([2H])[2H] [Compound 80],< 30 nM
